Measured values taken from patent publication US20070049593A1 (priority 2004, published 2007).
Structures can show the parent of a compound that is named as a salt.

Target: T1, HCV polymerase (Hepatitis C virus genotype 1b, UniProt P26663)
T1 construct: a region encoding NS5B (J Virol 1991 March, 65(3), 1105-13, 544 amino acids after deletion of 47 amino acids on the C-terminal); 6xHis (C); made in house; host or cells: Escherichia coli
Assay: biochemical
Design: species or system HCV BK strain
Conditions: not given
Summary of the method: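 Recombinant HCV BK-strain NS5B (C-terminal 47 aa deleted, His6-tagged, E. coli), 0.5 μg/ml, run with 5 μg/ml in vitro-transcribed RNA template (polyU/3′X), ATP/GTP/CTP 50 μM, UTP 2 μM plus [3H]UTP, pH 7.5, 25° C, 90 min. TCA-precipitated RNA counted by scintillation; IC50 from activity with vs without compound.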

T1 sequence (P26663 2420-2963): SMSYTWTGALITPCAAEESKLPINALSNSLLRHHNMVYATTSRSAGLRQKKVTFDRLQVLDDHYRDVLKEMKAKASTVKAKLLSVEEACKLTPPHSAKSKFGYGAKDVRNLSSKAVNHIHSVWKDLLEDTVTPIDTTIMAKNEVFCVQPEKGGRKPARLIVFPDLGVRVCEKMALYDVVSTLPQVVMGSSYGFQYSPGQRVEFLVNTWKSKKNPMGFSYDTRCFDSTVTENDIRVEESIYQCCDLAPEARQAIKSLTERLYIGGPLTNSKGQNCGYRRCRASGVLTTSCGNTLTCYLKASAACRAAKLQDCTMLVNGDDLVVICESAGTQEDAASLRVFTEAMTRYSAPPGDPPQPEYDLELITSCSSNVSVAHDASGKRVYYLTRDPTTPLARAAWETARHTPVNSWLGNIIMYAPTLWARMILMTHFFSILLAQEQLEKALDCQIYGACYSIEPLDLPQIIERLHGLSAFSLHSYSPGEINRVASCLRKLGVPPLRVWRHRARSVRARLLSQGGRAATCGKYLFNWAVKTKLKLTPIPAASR

With `COC(=O)[C@H](Cc1ccc(O)c(Cl)c1)NC(=O)c1ccc2c(C3CCCCC3)c3n(c2c1)CCOc1cc(OC)ccc1-3` [Example 2-363, methyl (S)-3-(3-chloro-4-hydroxyphenyl)-2-[(12-cyclohexyl-3-methoxy-6,7-dihydro-5-oxa-7a-azadibenzo[a,e]azulene-9-carbonyl)amino]propionate] as the compound, how does the IC50 read?
Its IC50 is less than 100 nM.

How did the IC50 turn out when `COC(=O)Nc1ccc(C[C@H](NC(=O)c2ccc3c(C4CCCCC4)c4n(c3c2)CCOc2cc(OC)ccc2-4)C(=O)O)cc1` [Example 2-364, (S)-2-[(12-cyclohexyl-3-methoxy-6,7-dihydro-5-oxa-7a-azadibenzo[a,e]azulene-9-carbonyl)amino]-3-(4-methoxycarbonylaminophenyl)propionic acid] was run?
Its IC50 is less than 100 nM.

How did the IC50 turn out when `COc1ccc2c(c1)OCCn1c-2c(C2CCCCC2)c2ccc(C(=O)N[C@@H](Cc3ccc(O)c(Cl)c3)C(=O)O)cc21` [Example 2-365, (S)-3-(3-chloro-4-hydroxyphenyl)-2-[(12-cyclohexyl-3-methoxy-6,7-dihydro-5-oxa-7a-azadibenzo[a,e]azulene-9-carbonyl)amino]propionic acid] was run?
The IC50 was less than 100 nM.

Which IC50 does the source give for `COC(=O)[C@H](CCc1ccc(O)cc1)NC(=O)c1ccc2c(C3CCCCC3)c3n(c2c1)CCOc1cc(OC)ccc1-3` [Example 2-366, methyl (S)-2-[(12-cyclohexyl-3-methoxy-6,7-dihydro-5-oxa-7a-azadibenzo[a,e]azulene-9-carbonyl)amino]-4-(4-hydroxyphenyl)butyrate] here?
The IC50 was less than 100 nM.

With `COc1ccc2c(c1)OCCn1c-2c(C2CCCCC2)c2ccc(C(=O)NC(C)(C)c3nc4cc(N(C)C)ccc4[nH]3)cc21` [Example 2-367, N-[1-(5-dimethylamino-1H-benzimidazol-2-yl)-1-methylethyl]-12-cyclohexyl-3-methoxy-6,7-dihydro-5-oxa-7a-azadibenzo[a,e]azulene-9-carboxamide] as the compound, how does the IC50 read?
Its IC50 is less than 100 nM.

With `COCC(NC(=O)c1ccc2c(C3CCCCC3)c3n(c2c1)CCOc1cc(OC)ccc1-3)C(=O)N1CCC(O)CC1` (stereo not shown) [Example 2-368, N-[2-(4-hydroxypiperidin-1-yl)-1-methoxymethyl-2-oxoethyl]-12-cyclohexyl-3-methoxy-6,7-dihydro-5-oxa-7a-azadibenzo[a,e]azulene-9-carboxamide] as the compound, how does the IC50 read?
The IC50 was less than 100 nM.

Which IC50 does the source give for `COc1ccc2c(c1)OCCn1c-2c(C2CCCCC2)c2ccc(C(=O)N[C@@H](Cc3ccc(OCc4ccccc4)cc3)c3nccs3)cc21` [Example 2-369, N—(S)-[2-(4-benzyloxyphenyl)-1-(thiazol-2-yl)ethyl]-12-cyclohexyl-3-methoxy-6,7-dihydro-5-oxa-7a-azadibenzo[a,e]azulene-9-carboxamide] here?
Its IC50 is less than 100 nM.

With `COc1ccc2c(c1)OCCn1c-2c(C2CCCCC2)c2ccc(C(=O)NC(C)(C)c3nc4cc(-c5nc(C)no5)ccc4[nH]3)cc21` [Example 2-370, N-(1-methyl-1-[5-(3-methyl-1,2,4-oxadiazol-5-yl)-1H-benzimidazol-2-yl]ethyl}-12-cyclohexyl-3-methoxy-6,7-dihydro-5-oxa-7a-azadibenzo[a,e]azulene-9-carboxamide] as the compound, how does the IC50 read?
The IC50 was less than 100 nM.

For `COc1ccc2c(c1)OCCn1c-2c(C2CCCCC2)c2ccc(C(=O)N[C@@H](CCC(N)=O)C(=O)OC(C)(C)C)cc21` [Example 2-371, tert-butyl (S)-4-carbamoyl-2-[(12-cyclohexyl-3-methoxy-6,7-dihydro-5-oxa-7a-azadibenzo[a,e]azulene-9-carbonyl)amino]butyrate], which IC50 is on record?
The IC50 was less than 100 nM.

`COc1ccc2c(c1)OCCn1c-2c(C2CCCCC2)c2ccc(C(=O)N[C@@H](CCC(N)=O)C(=O)O)cc21` [Example 2-372, (S)-4-carbamoyl-2-[(12-cyclohexyl-3-methoxy-6,7-dihydro-5-oxa-7a-azadibenzo[a,e]azulene-9-carbonyl)amino]butyric acid] was tested. Which IC50 did it give?
Its IC50 is less than 100 nM.

Which IC50 does the source give for `COC(=O)[C@H](Cc1ccc(O)cc1)NC(=O)c1ccc2c(C3CCCCC3)c3n(c2c1)CCOc1cc(OC)ccc1-3` [Example 2-373, methyl (S)-2-[(12-cyclohexyl-3-methoxy-6,7-dihydro-5-oxa-7a-azadibenzo[a,e]azulene-9-carbonyl)amino]-3-(4-hydroxyphenyl)propionate] here?
Its IC50 is less than 100 nM.

With `COC(=O)C(Cc1ccc(C(F)(F)F)cc1)NC(=O)c1ccc2c(C3CCCCC3)c3n(c2c1)CCOc1cc(OC)ccc1-3` (stereo not shown) [Example 2-374, methyl 2-[(12-cyclohexyl-3-methoxy-6,7-dihydro-5-oxa-7a-azadibenzo[a,e]azulene-9-carbonyl)amino]-3-(4-trifluoromethylphenyl)propionate] as the compound, how does the IC50 read?
Its IC50 is less than 100 nM.

How did the IC50 turn out when `COc1ccc2c(c1)OCCn1c-2c(C2CCCCC2)c2ccc(C(=O)N[C@@H](Cc3ccc(O)cc3)C(=O)O)cc21` [Example 2-375, (S)-2-[(12-cyclohexyl-3-methoxy-6,7-dihydro-5-oxa-7a-azadibenzo[a,e]azulene-9-carbonyl)amino]-3-(4-hydroxyphenyl)propionic acid] was run?
Its IC50 is less than 100 nM.

`COc1ccc2c(c1)OCCn1c-2c(C2CCCCC2)c2ccc(C(=O)N[C@@H](CCc3ccc(O)cc3)C(=O)O)cc21` [Example 2-376, (S)-2-[(12-cyclohexyl-3-methoxy-6,7-dihydro-5-oxa-7a-azadibenzo[a,e]azulene-9-carbonyl)amino]-4-(4-hydroxyphenyl)butyric acid] was tested. Which IC50 did it give?
The IC50 was less than 100 nM.

For `COC(=O)[C@H](Cc1ccc(OCC(=O)OC(C)(C)C)cc1)NC(=O)c1ccc2c(C3CCCCC3)c3n(c2c1)CCOc1cc(OC)ccc1-3` [Example 2-377, methyl (S)-3-(4-tert-butoxycarbonylmethoxyphenyl)-2-[(12-cyclohexyl-3-methoxy-6,7-dihydro-5-oxa-7a-azadibenzo[a,e]azulene-9-carbonyl)amino]propionate], which IC50 is on record?
The IC50 was less than 100 nM.

For `COC(=O)[C@H](Cc1ccc(OCC(=O)O)cc1)NC(=O)c1ccc2c(C3CCCCC3)c3n(c2c1)CCOc1cc(OC)ccc1-3` [Example 2-378, methyl (S)-3-(4-carboxymethoxyphenyl)-2-[(12-cyclohexyl-3-methoxy-6,7-dihydro-5-oxa-7a-azadibenzo[a,e]azulene-9-carbonyl)amino]propionate], which IC50 is on record?
Its IC50 is less than 100 nM.

With `COC(=O)C(CN1CCC(O)CC1)NC(=O)c1ccc2c(C3CCCCC3)c3n(c2c1)CCOc1cc(OC)ccc1-3` (stereo not shown) [Example 2-379, methyl 2-[(12-cyclohexyl-3-methoxy-6,7-dihydro-5-oxa-7a-azadibenzo[a,e]azulene-9-carbonyl)amino]-3-(4-hydroxypiperidin-1-yl)propionate monohydrochloride] as the compound, how does the IC50 read?
The IC50 was 100 to 1000 nM.

With `COc1ccc2c(c1)OCCn1c-2c(C2CCCCC2)c2ccc(C(=O)NC(C)(C)c3nc4cc(F)ccc4[nH]3)cc21` [Example 2-380, N-[1-(5-fluoro-1H-benzimidazol-2-yl)-1-methylethyl]-12-cyclohexyl-3-methoxy-6,7-dihydro-5-oxa-7a-azadibenzo[a,e]azulene-9-carboxamide] as the compound, how does the IC50 read?
Its IC50 is less than 100 nM.

For `COc1ccc2c(c1)OCCn1c-2c(C2CCCCC2)c2ccc(C(=O)N[C@@H](Cc3ccc(O)cc3)c3nccs3)cc21` [Example 2-381, N—(S)-[2-(4-hydroxyphenyl)-1-(thiazol-2-yl)ethyl]-12-cyclohexyl-3-methoxy-6,7-dihydro-5-oxa-7a-azadibenzo[a,e]azulene-9-carboxamide], which IC50 is on record?
Its IC50 is less than 100 nM.

How did the IC50 turn out when `CNC(=O)COc1ccc(C[C@H](NC(=O)c2ccc3c(C4CCCCC4)c4n(c3c2)CCOc2cc(OC)ccc2-4)C(=O)OC)cc1` [Example 2-382, methyl (S)-2-[(12-cyclohexyl-3-methoxy-6,7-dihydro-5-oxa-7a-azadibenzo[a,e]azulene-9-carbonyl)amino]-3-[4-(methylcarbamoylmethoxy)phenyl]propionate] was run?
The IC50 was less than 100 nM.

`COC(=O)[C@H](Cc1ccc(OCC(=O)N(C)C)cc1)NC(=O)c1ccc2c(C3CCCCC3)c3n(c2c1)CCOc1cc(OC)ccc1-3` [Example 2-383, methyl (S)-2-[(12-cyclohexyl-3-methoxy-6,7-dihydro-5-oxa-7a-azadibenzo[a,e]azulene-9-carbonyl)amino]-3-[4-(dimethylcarbamoylmethoxy)phenyl]propionate] was tested. Which IC50 did it give?
Its IC50 is less than 100 nM.

For `CNC(=O)[C@H](Cc1ccc(NC(=O)OC)cc1)NC(=O)c1ccc2c(C3CCCCC3)c3n(c2c1)CCOc1cc(OC)ccc1-3` [Example 2-384, methyl (4-{(S)-2-[(12-cyclohexyl-3-methoxy-6,7-dihydro-5-oxa-7a-azadibenzo[a,e]azulene-9-carbonyl)amino]-2-(methylcarbamoyl)ethyl}phenyl)carbamate], which IC50 is on record?
Its IC50 is less than 100 nM.

With `COc1ccc2c(c1)OCCn1c-2c(C2CCCCC2)c2ccc(C(=O)NC(C)(C)c3nc4cc(C(=O)N5CCC(O)CC5)ccc4[nH]3)cc21` [Example 2-386, N-{1-[5-(4-hydroxypiperidine-1-carbonyl)-1H-benzimidazol-2-yl]-1-methylethyl}-12-cyclohexyl-3-methoxy-6,7-dihydro-5-oxa-7a-azadibenzo[a,e]azulene-9-carboxamide] as the compound, how does the IC50 read?
The IC50 was less than 100 nM.

With `COc1ccc2c(c1)OCCn1c-2c(C2CCCCC2)c2ccc(C(=O)N[C@@H](Cc3ccc(O)cc3)C(=O)NCCO)cc21` [Example 2-387, N—[(S)-1-(2-hydroxyethylcarbamoyl)-2-(4-hydroxyphenyl)ethyl]-12-cyclohexyl-3-methoxy-6,7-dihydro-5-oxa-7a-azadibenzo[a,e]azulene-9-carboxamide] as the compound, how does the IC50 read?
The IC50 was less than 100 nM.

Same assay, conditions: 25° C., 90 min; [5,6-3H]UTP incorporation into RNA; read-out: HCV polymerase inhibitory activity IC50

How did the IC50 turn out when `COc1ccc2c(c1)OCCn1c-2c(C2CCCCC2)c2ccc(C(=O)N[C@@H](Cc3c[nH]c4ccc(O)cc34)c3csc(C)n3)cc21` [Example 2-385, [(S)-2-(5-hydroxy-1H-indol-3-yl)-1-(2-methylthiazol-4-yl)ethyl]-12-cyclohexyl-3-methoxy-6,7-dihydro-5-oxa-7a-azadibenzo[a,e]azulene-9-carboxamide] was run?
Its IC50 is less than 100 nM.
